Measured values reported in PMC11324770, “A novel in vitro high-content imaging assay for the prediction of drug-induced lung toxicity” (Archives of Toxicology, 2024).

Key:
occludin in A549 cells = assay: High-content imaging of junctional occludin staining in A549 cells; type: cell-based; details: for area of junctional staining present at the cell membrane compared to DMSO controls: A549, 24 h, concentration-dependent, Fig. 2 shows TNFα/TGFβ as a combination
Method: A549 (ATCC), an alveolar epithelial cell line, and CALU-3 (ATCC), an epithelial cell line, were cultured in Dulbecco’s modified Eagle’s medium (DMEM) supplemented with 10% foetal bovine serum (FBS). 16HBE bronchial epithelial cells, kindly provided by Carl Staples (University of Southampton), were cultured in DMEM supplemented with 10% FBS and 1% non-essential amino acids). All culture media materials were purchased from Thermo Fisher Scientific. For imaging experiments, cells were seeded at 10,000 cells per well in 96-well CellCarrier imaging plates (Perkin Elmer) and cultured for 72 h to allow tight junction formation. All experiments were carried out between passages 3 and 15.
All tested compounds were synthesized internally and provided in 100% DMSO. Compounds were diluted in appropriate media to a 9-point concentration range from 100 µM down to 15 nM with a final concentration of 1% DMSO. Cigarette smoke extract (CSE) was produced by passing smoke from 5 University of Kentucky research cigarettes with filters removed through PBS with an air pump at a rate 0.07 L/min. CSE was diluted in appropriate media to a concentration range of 12% to 0.01%. TNF-α and TGF-β (Thermo Fisher Scientific) were diluted in appropriate media to a concentration range of 50 ng/ml to 0.02 ng/ml. All treatments were for 24 h and terminated by removing media and fixing with 4% paraformaldehyde (PFA). Vehicle (1% DMSO) was included for each plate and all treatments were carried out in duplicate on each plate. All experiments were independently repeated at least 3 times.
Following treatment, cells were washed twice in PBS and fixed in 4% PFA for 20 min at room temperature and permeabilized using 0.5% Triton-X for 15 min at room temperature. Cells were then blocked using 5% goat serum in PBS at room temperature for 1 h. Primary antibodies were applied as per optimized conditions based on manufacturers recommended dilutions overnight at 4 °C. Cells were washed twice in PBS prior to application of secondary antibodies at a dilution of 1:5000 for 1 h at room temperature. Cells were washed twice with PBS and subsequently stained with a mixture of Hoechst and Cell Mask Deep Red at 1:1000 in PBS. Finally, cells were washed twice in PBS and either stored at 4 °C or imaged immediately. Plates were imaged using a MolecularDevices IXC. […] Cell viability was assessed through direct counts of nuclei.
Analysis modules were written using the custom module editor of MetaXpress version 6.5.4.532. […] This thickened outline mask was then applied to the cell mask image and the area of staining was quantified. […] To quantify the amount of occludin staining at the membrane, the final step of the module overlaid the thickened membrane mask with the thickened junction mask. […]

respiratory tract = test system: respiratory tract; parameters: method as in printed; details: ref not given, cited from earlier work

Row | Molecule | area of junctional staining present at the cell membrane compared to DMSO controls (occludin in A549 cells) | Comment (respiratory findings) (respiratory tract; earlier non-clinical or clinical findings) | Respiratory safety risk (respiratory tract; earlier pivotal toxicology studies in pre-clinical species or clinic) | IC50 (occludin in A549 cells; area of occludin staining normalized to cell number and DMSO, 24 h, 9-point range up to 100 µM, NA = no IC50 curve could be established) [µM]
1 | TNF-α | significant decrease |  |  | 
2 | [Cl][Cd][Cl] [Cadmium chloride] | significant decrease | Pneumonitis and fibrosis | Yes | 3.7
3 | TGF-β | significant decrease |  |  | 
